Tested on: Primary Human Subcutaneous Preadipocytes
Type: cell-based
Details: 2.5 ug/mL
Protocol: Quantification of adipogenesis is evaluated with AdipoRed™ Adipogenesis Assay Reagent (Lonza). The increase of the accumulation of lipids is determined by measuring the fluorescence signal of Nile Red in primary human Primary Human Subcutaneous Preadipocytes after treatment with exopolysaccharide produced by the strain of Halomonas eurihalina species with deposit number LMG P-28571 obtained in accordance with example 1 in Adipocyte Differentiation Medium. Cells treated with Adipocyte Differentiation Medium alone are used as a basal control. Human preadipocytes (from a donor) (ZENBIO) are seeded (13,000 cells/well, 5 wells per condition) in 96-clear well plates in Preadipocyte Growth Medium (ZENBIO). The cells are incubated for 24 hours at 37° C. in a water-saturated atmosphere of 95% air and 5% CO2. […] In the basal control, preadipocytes are treated with the Adipocyte Differentiation Medium only. As a negative control, preadipocytes are treated with the Adipocyte Differentiation Medium and caffeine. Quantification of the accumulation of lipids is carried out by AdipoRed™ reagent (LONZA) assay. […] The percentage of normalized lipid accumulation compared with the basal control is calculated.

Cn1c(=O)c2c(ncn2C)n(C)c1=O [Caffeine, caffeine]
% Lipid accumulation vs basal control: 87.50%

Source: patent US10413501B2, “Cosmetic composition containing halomonas ferment extract, and use thereof” (LUBRIZOL ADVANCED MATERIALS, INC., priority 2014, dated 2019)
